Laboratory results reported in the supplement of paper PMC10307832.

Legend:
Assay in all cases: relative viability (nuclei count vs DMSO), 5 days (fraction); higher = more cells survive
KN-93 + Navitoclax = compound: CN(C/C=C/C1=CC=C(C=C1)Cl)CC2=CC=CC=C2N(CCO)S(=O)(=O)C3=CC=C(C=C3)OC [KN-93] + CC1(C)CCC(c2ccc(Cl)cc2)=C(CN2CCN(c3ccc(C(=O)NS(=O)(=O)c4ccc(N[C@H](CCN5CCOCC5)CSc5ccccc5)c(S(=O)(=O)C(F)(F)F)c4)cc3)CC2)C1 [Navitoclax] (partner 0.5 µM)
How it was run: (§1)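 Medians of duplicate plates are given as relative viability. That measure is the nuclei count in treated wells divided by the count in vehicle wells. Counts were taken on 4× images of lung cancer cell lines in 1536-well plates, 5 days after pin-tool dosing the day after seeding with one drug alone or a fixed anchor-drug dose plus five library-drug doses (not always all listed) in √10 steps.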

KN-93 + Olaparib = compound: CN(C/C=C/C1=CC=C(C=C1)Cl)CC2=CC=CC=C2N(CCO)S(=O)(=O)C3=CC=C(C=C3)OC [KN-93] + O=C(c1cc(Cc2n[nH]c(=O)c3ccccc23)ccc1F)N1CCN(C(=O)C2CC2)CC1 [Olaparib] (partner 8 µM)
How it was run: as §1

KN-93 + Foretinib = compound: CN(C/C=C/C1=CC=C(C=C1)Cl)CC2=CC=CC=C2N(CCO)S(=O)(=O)C3=CC=C(C=C3)OC [KN-93] + COc1cc2c(Oc3ccc(NC(=O)C4(C(=O)Nc5ccc(F)cc5)CC4)cc3F)ccnc2cc1OCCCN1CCOCC1 [Foretinib] (partner 0.25 µM)
How it was run: as §1

KN-93 + Decitabine = compound: CN(C/C=C/C1=CC=C(C=C1)Cl)CC2=CC=CC=C2N(CCO)S(=O)(=O)C3=CC=C(C=C3)OC [KN-93] + Nc1ncn([C@H]2C[C@H](O)[C@@H](CO)O2)c(=O)n1 [Decitabine] (partner 2 µM)
How it was run: as §1

KN-93 + Dasatinib = compound: CN(C/C=C/C1=CC=C(C=C1)Cl)CC2=CC=CC=C2N(CCO)S(=O)(=O)C3=CC=C(C=C3)OC [KN-93] + Cc1nc(Nc2ncc(C(=O)Nc3c(C)cccc3Cl)s2)cc(N2CCN(CCO)CC2)n1 [Dasatinib] (partner 0.075 µM)
How it was run: as §1

Cell Line	relative viability (KN-93 + Navitoclax; first compound 0.08 µM)	relative viability (KN-93 + Navitoclax; first compound 0.253 µM)	relative viability (KN-93 + Navitoclax; first compound 2.53 µM)	relative viability (KN-93 + Navitoclax; first compound 8 µM)	relative viability (KN-93 + Olaparib; first compound 0.08 µM)	relative viability (KN-93 + Olaparib; first compound 0.253 µM)	relative viability (KN-93 + Olaparib; first compound 2.53 µM)	relative viability (KN-93 + Olaparib; first compound 8 µM)	relative viability (KN-93 + Foretinib; first compound 0.08 µM)	relative viability (KN-93 + Foretinib; first compound 0.253 µM)	relative viability (KN-93 + Foretinib; first compound 2.53 µM)	relative viability (KN-93 + Foretinib; first compound 8 µM)	relative viability (KN-93 + Decitabine; first compound 0.08 µM)	relative viability (KN-93 + Decitabine; first compound 0.253 µM)	relative viability (KN-93 + Decitabine; first compound 2.53 µM)	relative viability (KN-93 + Decitabine; first compound 8 µM)	relative viability (KN-93 + Dasatinib; first compound 0.08 µM)	relative viability (KN-93 + Dasatinib; first compound 0.253 µM)	relative viability (KN-93 + Dasatinib; first compound 2.53 µM)	relative viability (KN-93 + Dasatinib; first compound 8 µM)
SW 1573	0.97	1.12	1.13	0.598	0.456	0.589	0.523	0.22	0.863	0.91	0.933	1	0.494	0.615	0.466	0.212	0.551	0.492	0.474	0.236
NCI-H596	0.996	0.891	0.966	0.575	0.737	0.507	0.658	0.642	0.862	0.989	0.886	0.532	1.03	1.19	1.08	0.824	0.607	0.642	0.587	0.421
NCI-H1793		0.398	0.385	0.244	0.74	0.83	0.783	0.382	0.729	0.799	0.642	0.287	0.595	0.494	0.465	0.43	0.406	0.374	0.407	0.169
NCI-H2170	0.537	0.606	0.542	0.563	0.531	0.679	0.679	0.419	0.973	1.23	0.903	0.892	0.468	0.501	0.49	0.436	0.501	0.55	0.718	0.266
LK-2	0.743	0.677	1.12	0.567	0.79	0.643	0.89	0.582	1.16	1.58	1.48	1.15	0.276	0.293	0.315	0.278	0.248	0.315	0.288	0.417
HCC-366		1.35	1.1	0.907	0.298	0.318	0.422	0.2	0.909	1.02	0.796	0.379	0.333	0.333	0.307	0.299	0.513	0.562	0.737	0.223
NCI-H661					0.577	0.951	0.64	0.4	0.942	1.13	0.976	0.481	0.539	0.527	0.543	0.378	1.01	0.808	0.69	0.413
NCI-H2085	1.04	1.21	1.23	0.867	0.741	0.735	0.776	0.6	1	0.994	1.05	0.664	0.581	0.502	0.516	0.496	0.237	0.254	0.231	0.268
NCI-H1437	0.92	1.23	1.07	0.476	0.626	0.683	0.564	0.456	1.17	1.26	1.13	0.64	0.519	0.768	0.533	0.405	0.457	0.44	0.374	0.153
HCC-44	0.852	0.892	0.951	0.752	0.935	0.959	0.994	0.88					1.05	0.929	1.03	0.915				
NCI-H3122	1.11	1.1	1.1	0.846	0.491	0.571	0.763	0.53	1.05	1.13	1.11	0.912	0.364	0.398	0.359	0.367	0.716	0.824	1.12	0.661
NCI-H1395	1.11	1.22	1.34	0.566	0.452	0.48	0.424	0.419	1.09	0.934	0.964	0.697	0.713	0.739	0.745	0.615	0.428	0.402	0.708	0.31
ChaGo-K-1	1.58	1.08	1	0.54	0.388	0.402	0.442	0.38	0.866	0.981	0.832	0.669	0.559	0.528	0.541	0.457	0.555	0.662	0.534	0.341
NCI-H1734	0.649	0.964	0.816	0.622	0.496	0.677	0.611	0.518	0.72	0.847	0.734	0.585	0.465	0.596	0.502	0.442	0.478	0.544	0.577	0.358
NCI-H460	0.39	1.29		0.63	0.286	0.468	0.586	0.305	0.715	1.06	1.02	0.591	0.282	0.409	0.579	0.46	0.489	0.526	0.726	0.35
NCI-H2087	0.931	0.948	0.982	0.527	0.453	0.606	0.653	0.383	0.983	1.31	1.21	0.697	0.28	0.235	0.273	0.155	0.793	1.38	0.882	0.622
HOP-62	1.01	0.897	1.38	0.904	0.325	0.401	0.0964	0.545	1.2	1.22	1.26	0.958	0.225	0.27	0.241	0.239	0.52	0.669	0.675	0.501

Cell Line	relative viability (KN-93 + Navitoclax; first compound 0.08 µM)	relative viability (KN-93 + Navitoclax; first compound 0.253 µM)	relative viability (KN-93 + Navitoclax; first compound 2.53 µM)	relative viability (KN-93 + Navitoclax; first compound 8 µM)	relative viability (KN-93 + Olaparib; first compound 0.08 µM)	relative viability (KN-93 + Olaparib; first compound 0.253 µM)	relative viability (KN-93 + Olaparib; first compound 2.53 µM)	relative viability (KN-93 + Olaparib; first compound 8 µM)	relative viability (KN-93 + Foretinib; first compound 0.08 µM)	relative viability (KN-93 + Foretinib; first compound 0.253 µM)	relative viability (KN-93 + Foretinib; first compound 2.53 µM)	relative viability (KN-93 + Foretinib; first compound 8 µM)	relative viability (KN-93 + Decitabine; first compound 0.08 µM)	relative viability (KN-93 + Decitabine; first compound 0.253 µM)	relative viability (KN-93 + Decitabine; first compound 2.53 µM)	relative viability (KN-93 + Decitabine; first compound 8 µM)	relative viability (KN-93 + Dasatinib; first compound 0.08 µM)	relative viability (KN-93 + Dasatinib; first compound 0.253 µM)	relative viability (KN-93 + Dasatinib; first compound 2.53 µM)	relative viability (KN-93 + Dasatinib; first compound 8 µM)
NCI-H358					0.678	0.638	0.608	0.502	0.519	0.733	0.64	0.335	0.212	0.207	0.198	0.184	0.182	0.168	0.15	0.148
NCI-H1944	1.09	1.01	1.04	0.896	0.356	0.378	0.401	0.334	0.831	0.835	0.709	0.557	0.45	0.414	0.413	0.395	0.235	0.22	0.213	0.154
HCC-78	0.699	0.833	0.778	0.375	0.725	0.976	0.807	0.726	0.564	0.475	0.579	0.525	0.724	0.676	0.709	0.747	0.336	0.459	0.373	0.344
NCI-H1703	0.936	1.11	1.04	0.179	0.432		0.372	0.181	0.351	0.364	0.352	0.238								
LCLC-97TM1	0.287		0.527	0.238	0.308	0.368	0.449	0.242	0.955	0.978	0.895	0.74	0.288	0.208	0.279	0.211	0.753	0.955	0.814	0.63
IA-LM	0.975	0.826	1.23	0.439	1.05	0.656	0.933	0.579		1.36	1.3	0.926								
NCI-H441		0.573	0.747	0.238		0.799	0.531	0.467	1.08	1.23	1.2	0.73		0.203	0.261	0.197	0.758	0.639	0.617	0.458
ABC-1					0.785	0.687	0.978	0.339	0.956	1.17	0.873	0.314	1.37	1	1.17	0.411	0.585	0.476	0.468	0.203
NCI-H1755	0.844	1.03	1.07	0.815	0.806	0.804	0.909	0.827	0.993	0.924	0.921	0.794	0.752	0.723	0.696	0.703	0.392	0.407	0.384	0.255
NCI-H2342					0.4	0.423	0.446	0.352	0.918	0.962	1.06	0.902	0.675	0.685	0.757	0.77	0.277	0.327	0.354	0.277
SW 900					1.13	0.766	1.13	0.559	0.851	0.942	1.02	0.762	0.443	0.427	0.452	0.517	0.609	0.568	0.65	0.48
NCI-H522					0.61	0.607	0.576	0.649					0.699	0.625	0.7	0.707	0.825	0.949	0.846	0.695
NCI-H2228	1.31	0.788	0.914	0.674	0.617	0.611	0.8	0.269	0.872	0.891	0.862	0.506					0.597	0.541	0.631	0.326
CAL-12T	1.2	1.19	1.53	1.23	0.772	0.777	0.788	0.641	1.01	1.27	1.09	0.565					0.358	0.286	0.509	0.139
NCI-H650					0.425	0.366	0.368	0.397	1.11	0.972	0.968	0.705	0.325	0.272	0.302	0.311	0.465	0.526	0.417	0.355
NCI-H1792		0.705	0.75	0.492	0.351	0.312	0.392	0.311					0.278	0.489	0.602	0.535	0.651	0.681	0.973	0.633
LCLC-103H					0.701	0.859	0.758	0.558	0.901	1.01	0.799	0.536	0.657	0.69	0.673	0.518	0.438	0.464	0.438	0.26
